# In publication PMC9386018, “A lymphatic-absorbed multi-targeted kinase inhibitor for myelofibrosis therapy” (Nature Communications, 2022):
# Values joined by “and” are separate entries in the source; they are usually repeats but may differ in a detail not shown here. Equal values may be shown once.
# Tests used:
# [1] = tested on: Caspase 3/7 activity in SET-2 cells; test: SET-2 Caspase activation assay (Caspase-Glo 3/7); type: cell-based, human; conditions: 48 h; for Relative Caspase activation: normalized to vehicle, replicates
# Protocol: Viable cells were counted by CellTiter-Fluor Assay (Promega) according to manufacturer’s protocol, and all fluorescence values were corrected by a no-cell control. For Caspase activation assays, SET-2 cells were cultured for 48 h at 10^6 cells mL^−1 with various concentration of LP-182 or vehicle (DMSO). Caspase activity was measured by Caspase-Glo 3/7 assay (Promega) according to the manufacturer’s protocol, and all luminescence values were corrected by a no-cell control. Dose response proliferation and Caspase activation data was normalized to vehicle treated control cells and analyzed by non-linear regression for determination of IC50 values. Data was generated from n = 3 independent experiments performed in replicate.
# [2] = tested on: ERK1/2 and pERK1/2 (pT202/pY204) in bone marrow; test: MPL^W515L MF mouse model: ERK1/2 and pERK1/2 immunoblot of bone marrow; type: in vivo; conditions: MPL^W515L mice, oral 400 mg kg^−1 daily, 28 d
# Protocol: (§1) Generation of the MPL^W515L mutant MF mouse model was similar to previously described methods. Briefly, female donor BALB/c mice were treated with 5-fluorouracil at 150 mg kg^−1 intraperitoneal for 5 d before harvesting bone marrow. Hematopoietic stem and progenitor cells were enriched with CD117 magnetic beads (Miltenyi Biotec), transduced with retrovirus containing MSCV-hMPL W515L-IRES-GFP, then 50,000 transduced HSPCs along with 300,000 total non-stem cells were injected intravenously into lethally irradiated female BALB/c recipients. Development of MF was evaluated by spleen volumes using MRI beginning ~14 d following bone marrow transplantation (BMT) as outlined below, continuing weekly until end of the study. Mice were separated into equal groups based on spleen size ~14–21 d post-BMT, then treated with vehicle (Maisine CC) or LP-182 at 400 mg kg^−1 daily by oral gavage for 14–28 d or until mice were euthanized using guidelines for end stage illness and humane endpoints. Untreated healthy control animals were used for experimental comparisons. […] Soluble protein extracts were isolated by centrifugation at 15,000 x g for 15 min at 4 °C, quantified using Micro BCA protein assay (Thermo Scientific), then mixed with reducing 6X SDS-PAGE loading dye, heated for 8 min at 95 °C, and stored at −20 °C until immuno-blot analysis. […]
# [3] = tested on: MPL^W515L mouse model of myelofibrosis; test: MPL^W515L MF mouse model: survival; type: in vivo; conditions: MPL^W515L mice, oral 400 mg kg^−1 daily
# Protocol: as §1
structure (smiles),measurement,setting,value
"O=C(NOCCOCCOCCOCCC(=O)N1CCN(c2cnc3ccc(-c4cnc(Cl)c(NS(=O)(=O)c5ccc(F)cc5)c4)cc3n2)CC1)c1ccc(F)c(F)c1Nc1ccc(I)cc1F [LP-182, N-(2-(2-(2-(3-(4-(7-(6-chloro-5-((4-fluorophenyl)sulfonamido)pyridin-3-yl)quinoxalin-2-yl)piperazin-1-yl)-3-oxopropoxy)ethoxy)ethoxy)ethoxy)-3,4-difluoro-2-((2-fluoro-4-iodophenyl)amino)benzamide]",apoptotic cell death (Caspase activation),[1],initiated apoptotic cell death
same,Relative Caspase activation,[1]; LP-182 5 µM,1.094 and 1.105 and 1.123 and 1.124 and 1.108 and 1.081
same,Relative Caspase activation,[1]; LP-182 10 µM,1.411 and 1.334 and 1.453 and 1.372 and 1.41 and 1.477
same,Relative Caspase activation,[1]; LP-182 20 µM,1.934 and 1.9571 and 1.914 and 1.975 and 2.004 and 1.977
same,Relative Caspase activation,[1]; LP-182 40 µM,2.054 and 1.793 and 2.072 and 2.115 and 2.193 and 2.206
same,levels and activation of ERK1/2 in bone marrow,[2],attenuate downstream MPL^W515L signal transduction
same,overall survival (Kaplan-Meier),[3],significantly improved overall survival
same,survival to planned end of study,[3]; 28 d treatment,survived 50 d post-transplant
